The record followed here is patent publication US10023593B2, “ALK kinase inhibitor, and preparation method and uses thereof” (BEIJING PEARL BIOTECHNOLOGY LIMITED LIABILITY COMPANY, priority 2014, dated 2018).

Each structure is given as a SMILES string.

In this experiment the test system is NCI-H2228 cell line. Put plainly: CellTiter-Glo cell proliferation inhibition on NCI-H2228 cell line. The experiment is classed as cell-based. The settings on record: Homo sapiens, NCI-H2228, 96 h, NCI-H2228 cells, 5000 cells/well, 4 days drug treatment. The procedure:
3. Cell Proliferation Inhibitory Activities of the Compounds of the Present Invention on NCI-H2228 Cell Line
? experimental method ? CellTiter-Glo® Luminescent Cell Viability Assay kit from Promega company was used to detect cell proliferation inhibitory activities of the compounds on NCI-H2228 cell line.
? instrument ? Envision 2104 plate reader from PerKinElmer company; Vi-Cell XR cell counter from Beckman Counter company; MCO-18AIC CO2 incubator from SANYO company.
? experiment material ? CellTiter-Glo® Luminescent Cell Viability Assay Kit (Promega company, catalog No. G7573); NCI-H2228 cell line (ATCC, catalog No. CRL-5935); RPMI-1640 medium (HyClone company, catalog No. SH30809.01B); fetal bovine serum (FBS) (Gibco company, catalog No. 10099-141); trypsin (Trypsin) (Gibco company, catalog No. 25200-072); PBS (HyClone company, catalog No. SH30256.01B); 96 wells cell culture plate (Corning company, catalog No. 3610); DMSO (AMRESCO company, catalog No. 0231); 96 wells plates (for diluting compounds) (CITOTEST company, catalog No. Ref36020096D);
? experimental condition ? NCI-H2228 cells in exponential growth phase were collected and treated with trypsin (Trypsin), and viable cells were counted by Vi-Cell XR cell counter. Cell suspension was adjusted to 62500 cells/ml with culture medium (RPMI-1640+10% FBS). 80 μl cell suspension was added into each well of 96 wells cell culture plate so that the final cell number of NCI-H2228 cells was 5000 cells/well. The cells were cultivated in an incubator with an atmosphere of 37° C., 5% CO2 and 95% humidity for 2 hours and then each well was added with 20 μl compounds in RPMI-1640 medium solution (the final concentration of DMSO was 0.5%). 4 days after drug treatment, each well was added with 50 μl CellTiter-Glo solution which was previously thawed and equilibrated to room temperature, and mixed for 2 minutes with microplate shaker. After placing at room temperature for 10 minutes, luminescence value was measured by PerkinElmer Envision 2104 plate reader and the data was analyzed.
? tested samples ? Compounds of the examples.
? data analysis ? Luminescence value of DMSO solvent control (Vvehicle control, which is the mean luminescence value from DMSO solvent control group)
Tested luminescence value (Vsample, which is the luminescence value from given concentration of compounds group) Inhibition rate (%)=(1−Vsample/Vvehicle control)×100
? data processing ? IC50 of compounds was calculated by using XLfit program in Excel.
For orientation: In ATP-based viability assays light output follows the ATP content of the culture.
The term IC50 denotes the concentration needed to halve the response being measured. A high value points to weaker potency. `Cc1cc(Nc2ncc(Cl)c(Nc3cn(C)nc3S(=O)(=O)CC(C)C)n2)c(OC2CC2)cc1C1CCCN(C)C1` (stereo not drawn) [Final product 61] yielded an IC50 of 85 nM.
The molecule `Cc1cc(Nc2ncc(Cl)c(Nc3cn(C)nc3S(=O)(=O)C(C)C)n2)c(OC(C)C)cc1C1CCCN(C)C1` (stereo not drawn) [Final product 62] had an IC50 of 122 nM.
`Cc1cc(Nc2ncc(Cl)c(Nc3cn(C)nc3S(=O)(=O)C(C)C)n2)c(OC2CCC2)cc1C1CCN(C)CC1` [Final product 63] showed an IC50 of 31 nM.
With `COc1cc(C2CCN(C)CC2)c(C)cc1Nc1ncc(Cl)c(Nc2cn(C)nc2S(=O)(=O)C(C)C)n1` [Final product 64], the IC50 worked out at 31 nM.
Then `CCOc1cc(C2CCN(C)CC2)c(C)cc1Nc1ncc(Cl)c(Nc2cn(C)nc2S(=O)(=O)C(C)C)n1` [Final product 65], with 38 nM; and `CCCOc1cc(C2CCN(C)CC2)c(C)cc1Nc1ncc(Cl)c(Nc2cn(C)nc2S(=O)(=O)C(C)C)n1` [Final product 66], with 59 nM.
Then `CC(C)Oc1cc(C2CCN(C)CC2)c(C2CC2)cc1Nc1ncc(Cl)c(Nc2cn(C)nc2S(=O)(=O)C(C)C)n1` [Final product 68], with 150 nM; and `CCCc1cc(Nc2ncc(Cl)c(Nc3cn(C)nc3S(=O)(=O)C(C)C)n2)c(OC(C)C)cc1C1CCN(C)CC1` [Final product 69], with 178 nM.
Turning to `Cc1cc(Nc2ncc(F)c(Nc3cn(C)nc3S(=O)(=O)C(C)C)n2)c(OC(C)C)cc1C1CCN(C)CC1` [Final product 71], the IC50 was found to be 199 nM.
Molecule `Cc1cc(Nc2ncc(C)c(Nc3cn(C)nc3S(=O)(=O)C(C)C)n2)c(OC(C)C)cc1C1CCN(C)CC1` [Final product 73] registered an IC50 of 151 nM.
In turn, `Cc1cc(Nc2ncc(Cl)c(Nc3cn(C)nc3S(=O)(=O)C(C)C)n2)c(OC2CC2)cc1C1CC2COCC(C1)N2C` (stereo not drawn) [Final product 74] showed an IC50 of 19 nM.
For the molecule `Cc1cc(Nc2ncc(Cl)c(Nc3cn(C)nc3S(=O)(=O)C(C)C)n2)c(OC2CC2)cc1CN1CCN(C)CC1` [Final product 75], half-maximal inhibition (IC50) required 109 nM.
For the molecule `Cc1cc(Nc2ncc(Cl)c(Nc3cn(C)nc3S(=O)(=O)C(C)C)n2)c(OC2CC2)cc1OC1CN(C)C1` [Final product 76], the half-inhibitory concentration (IC50) was 215 nM. This IC50 is about 2-fold higher than that of the molecule before.
For `COCC1CC(c2cc(OC(C)C)c(Nc3ncc(Cl)c(Nc4cn(C)nc4S(=O)(=O)C(C)C)n3)cc2C)CCN1C` (stereo not drawn) [Final product 78] the value was 128 nM; for `COCC(C)(C)N1CCC(c2cc(OC3CC3)c(Nc3ncc(Cl)c(Nc4cn(C)nc4S(=O)(=O)C(C)C)n3)cc2C)CC1` [Final product 84], 46 nM.
Then `COCC(C)(C)N1CCC(c2cc(OC(C)C)c(Nc3ncc(Cl)c(Nc4cn(C)nc4S(=O)(=O)C(C)C)n3)cc2C)CC1` [Final product 85], with 77 nM; and `Cc1cc(Nc2ncc(Cl)c(Nc3cn(C)nc3S(=O)(=O)C3CCC3)n2)c(OC(C)C)cc1C1CCN(C)CC1` [Final product 86], with 120 nM.
With `Cc1cc(Nc2ncc(Cl)c(Nc3cn(C)nc3S(=O)(=O)C(C)C)n2)c(OC2CC2)cc1C1CCN(C)CC1Cl` (stereo not drawn) [Final product 89], the IC50 worked out at 108 nM. The IC50 values of the last two molecules are within 1.5-fold of each other.
`Cc1cc(Nc2ncc(Cl)c(Nc3cn(C)nc3S(=O)(=O)CC(C)C)n2)c(OC2CC2)cc1C1CCN(C)CC1C` (stereo not drawn) [Final product 91] displayed an IC50 of 75 nM.
For `Cc1cc(Nc2ncc(Cl)c(Nc3cn(C)nc3S(=O)(=O)CC(C)C)n2)c(OC2CC2)cc1C1CCN(C)C(C)C1` (stereo not drawn) [Final product 93], the midpoint of inhibition, the IC50, lay at 67 nM.
`Cc1cc(Nc2ncc(Cl)c(Nc3cn(C)nc3S(=O)(=O)C(C)C)n2)c(OC(C)C)cc1C1CCN(C)C(C)C1` (stereo not drawn) [Final product 94] showed an IC50 of 79 nM.
Take `Cc1cc(Nc2ncc(Cl)c(Nc3cn(C)nc3S(=O)(=O)CC(C)C)n2)c(OC2CC2)cc1C1CC(C)N(C)C(C)C1` (stereo not drawn) [Final product 96]: the IC50 was found to be 85 nM. The IC50 values of the last two molecules are within 1.5-fold of each other.
`Cc1cc(Nc2ncc(Cl)c(Nc3cn(C)nc3S(=O)(=O)C(C)C)n2)c(OC(C)C)cc1C1CC(C)(C)N(C)C(C)(C)C1` [Final product 98]: half-maximal inhibition (IC50) required 240 nM. Compared with the last molecule, the IC50 is about 2.8-fold higher.
For `Cc1cc(Nc2ncc(Cl)c(Nc3cn(C)nc3S(=O)(=O)C(C)C)n2)c(OC2CC2)cc1C1CCN(C)CC1(C)C` (stereo not drawn) [Final product 99], the midpoint of inhibition, the IC50, lay at 58 nM. This IC50 lies about 4.1-fold lower than the previous one.
With `Cc1cc(Nc2ncc(Cl)c(Nc3cn(C)nc3S(=O)(=O)C(C)C)n2)c(OC2CC2)cc1C1CCN(C)C(C(=O)N(C)C)C1` (stereo not drawn) [Final product 101], the half-maximal inhibitory concentration (IC50) was determined as 26 nM. Against the preceding molecule, the IC50 is about 2.2-fold lower.
For `Cc1cc(Nc2ncc(Cl)c(Nc3cn(C)nc3S(=O)(=O)C(C)C)n2)c(OC2CC2)cc1C1CCCCN1C` (stereo not drawn) [Final product 102], 103 nM corresponded to half-maximal inhibition (IC50).
`Cc1cc(Nc2ncc(Cl)c(Nc3cn(C)nc3S(=O)(=O)CC(C)C)n2)c(OC2CC2)cc1C1CCN(C)C(=O)C1` (stereo not drawn) [Final product 104] yielded a concentration for half-maximal inhibition (IC50) of 70 nM.
Consider `Cc1cc(Nc2ncc(Cl)c(Nc3cn(C)nc3S(=O)(=O)C(C)C)n2)c(OC2CC2)cc1C1CCN2CCCC2C1` (stereo not drawn) [Final product 105], for which the IC50 stood at 63 nM.
Take `Cc1cc(Nc2ncc(Cl)c(Nc3cn(C)nc3S(=O)(=O)C(C)C)n2)c(OC2CC2)cc1C1CCCN(C)CC1` (stereo not drawn) [Final product 106]: the IC50 was 34 nM.
As to `Cc1cc(Nc2ncc(Cl)c(Nc3cn(C)nc3S(=O)(=O)C(C)C)n2)c(OC2CC2)cc1C1CC2COCC(C1)N2` (stereo not drawn) [Final product 108], the midpoint of inhibition, the IC50, lay at 33 nM.
Consider `Cc1cc(Nc2ncc(Cl)c(Nc3cn(C)nc3S(=O)(=O)C(C)C)n2)c(OC2CC2)cc1C1CC2CN(C)CC(C1)O2` (stereo not drawn) [Final product 109], for which the IC50 came out at 109 nM.
For `Cc1cc(Nc2ncc(Cl)c(Nc3cn(C)nc3S(=O)(=O)C(C)C)n2)c(OC2CC2)cc1C1CCS(=O)(=O)CC1` [Final product 110], the IC50 was determined as 97 nM.
For `CC(C)S(=O)(=O)c1nn(C)cc1Nc1nc(Nc2cc3c(cc2OC2CC2)CN(C)CC3)ncc1Cl` [Final product 112] the value was 211 nM; for `CCOc1cc(C2CCN(CC)CC2)c(C)cc1Nc1ncc(Cl)c(Nc2cn(C)nc2S(=O)(=O)C(C)C)n1` [Final product 116], 34 nM.
With `CCN1CCC(c2cc(OC3CC3)c(Nc3ncc(Cl)c(Nc4cn(C)nc4S(=O)(=O)CC(C)C)n3)cc2C)CC1` [Final product 117], the IC50 is 158 nM.
As to `CCN1CCCC(c2cc(OC(C)C)c(Nc3ncc(Cl)c(Nc4cn(C)nc4S(=O)(=O)C(C)C)n3)cc2C)C1` (stereo not drawn) [Final product 119], the IC50 is 193 nM. The IC50 values of the last two molecules are within 1.5-fold of each other.
Then `CCN1CCCC(c2cc(OC3CC3)c(Nc3ncc(Cl)c(Nc4cn(C)nc4S(=O)(=O)C(C)C)n3)cc2C)C1` (stereo not drawn) [Final product 120], with 93 nM.
`CCN1CCCC(c2cc(OC3CC3)c(Nc3ncc(Cl)c(Nc4cn(C)nc4S(=O)(=O)CC(C)C)n3)cc2C)C1` (stereo not drawn) [Final product 121] registered an IC50 of 168 nM.
`CCN1CCC(c2cc(OC3CCC3)c(Nc3ncc(Cl)c(Nc4cn(C)nc4S(=O)(=O)C(C)C)n3)cc2C)CC1` [Final product 122]: the IC50 was 79 nM.
On to `COc1cc(C2CCN(C(C)C)CC2)c(C)cc1Nc1ncc(Cl)c(Nc2cn(C)nc2S(=O)(=O)C(C)C)n1` [Final product 124], for which the midpoint of inhibition, the IC50, lay at 86 nM.
`CCOc1cc(C2CCN(C(C)C)CC2)c(C)cc1Nc1ncc(Cl)c(Nc2cn(C)nc2S(=O)(=O)C(C)C)n1` [Final product 125] registered an IC50 of 47 nM.
Regarding `Cc1cc(Nc2ncc(Cl)c(Nc3cn(C)nc3S(=O)(=O)C(C)C)n2)c(OC(C)C)cc1C1CCCN(C(C)C)C1` (stereo not drawn) [Final product 128], the IC50 is 128 nM.
Consider `Cc1cc(Nc2ncc(Cl)c(Nc3cn(C)nc3S(=O)(=O)C(C)C)n2)c(OC2CC2)cc1C1CCCN(C(C)C)C1` (stereo not drawn) [Final product 129], for which the IC50 was found to be 32 nM.
In the case of `Cc1cc(Nc2ncc(Cl)c(Nc3cn(C)nc3S(=O)(=O)CC(C)C)n2)c(OC2CC2)cc1C1CCCN(C(C)C)C1` (stereo not drawn) [Final product 130], the IC50 was found to be 28 nM.
Turning to `Cc1cc(Nc2ncc(Cl)c(Nc3cn(C)nc3S(=O)(=O)C(C)C)n2)c(OC2CCC2)cc1C1CCN(C(C)C)CC1` [Final product 131], the IC50 was 52 nM.
For `Cc1cc(Nc2ncc(Cl)c(Nc3cn(C)nc3S(=O)(=O)C(C)C)n2)c(OC(C)C)cc1C1CN(C(C)C)C1` [Final product 132] the value was 207 nM.
For `Cc1cc(Nc2ncc(Cl)c(Nc3cn(C)nc3S(=O)(=O)C(C)C)n2)c(OC(C)C)cc1C1CN(CCO)C1` [Final product 134] the value was 134 nM.
Molecule `Cc1cc(Nc2ncc(Cl)c(Nc3cn(C)nc3S(=O)(=O)C(C)C)n2)c(OC(C)C)cc1C1CCN(CCO)CC1` [Final product 136] showed an IC50 of 112 nM.
